Results as given in patent US7605175B2, “Inhibitors of cyclin-dependent kinases, compositions and uses related thereto” (GPC Biotech AG, priority 2001, dated 2009).
Read-outs that look alike come from different tables or passages of the source.

Legend:
arrested HCT-116 cells = experiment: Arrested cell assay, arrested HCT-116 tumor cells; format: cell-based; conditions: Homo sapiens
Method: Cyclin-dependent kinase (Cdk) activity is required to promote the progression of cells through distinct phases of the cell division cycle. The proliferation of normal, non-transformed, cells in culture requires the presence of growth factors, the removal of which, through serum deprivation, leads to a loss of Cdk activity and consequent exit from the cell cycle as cells enter the quiescent phase, G0.
HCT-116 cells were plated in triplicate for each compound concentration to be tested in RPMI 1640 media containing 10% fetal calf serum at a density of either 200 or 2,000 cells per well in 24 well dishes, and incubated overnight at 37° C., 5% CO2. The media from the plate containing 2,000 cells per well was removed, cells were washed once with serum free media and 1 ml of serum free media was placed on cells. The plates containing cells both in the presence and absence of serum were incubated for 6 additional days.
The cells are incubated in the presence of the compounds for 72 hours (3 days) at 37° C. […] Cycling and arrested HCT-116 cells as well as cycling IMR90 cells were exposed to a panel of 6 doses ranging from 5 to 250 nM. For arrested normal cells, the range of doses was increased to 50 nM to 25 μM, to compensate for the expected decrease in activity.
The effect of 72 hours of compound exposure on cellular viability was assessed in the Calcein AM assay. Calcein AM is a fluorescent substrate of intracellular esterases that are only active in viable cells. Cleavage of the substrate thus provides a measure of viability, which is proportional to cell number.
A Calcein AM stock solution was prepared by dissolving a 50 μg aliquot (Molecular Probes catalogue # C3100) in 50 μl DMSO. The tube was incubated at room temperature for approximately 10 minutes to ensure that the Calcein had dissolved completely. The calcein was diluted into 10 ml PBS to prepare the final solution, which was protected from light.
The media was aspirated off the cells, which were then washed twice with 1 ml PBS to remove the PBS completely from cells by aspiration. 0.5 ml of the Calcein/PBS solution was transferred by pipette into each well. The plates were incubated at 37° C. for 75 minutes (protected from light) and read on a fluorescent plate reader (excitation 485/20 and emission 530/25).

[1] = system: NCI panel of 60 cell lines; experiment: NCI panel of human tumor cell lines (SRB), Mean-Graph Mid-point; format: cell-based
Text: The evaluation of compounds at the National Cancer Institute in their panel of 60 cell lines provides a wealth of information regarding efficacy in a wide range of tumor types and genetic backgrounds. Included within this panel are cell lines derived from leukemia, melanoma and cancers of the lung, colon, brain, ovary, breast, prostate and kidney. Use of this panel provides a measure of the efficacy of compounds in cells with alterations in many genes that are associated with neoplastic transformation including p53 and Her2/Neu as well as those involved in metabolism and those which confer multi-drug resistance. The data generated in these cell lines with the protocol described below can be used to evaluate the activity of compounds.
Cells were grown in RPMI-1640 10% FCS and plated in 96 well micro-titer plates at densities ranging from 5,000 to 40,000 cells/well. The plates were incubated for 24 hours at 37° C., 5% CO2 for 24 hours. Media containing twice the desired final concentration of the compound (5 doses spanning 4 logs) was prepared and 100 μl was added to each well containing 100 μl media plus cells to yield the desired final concentration. The plates were then incubated for an additional 48 hours.
The effect of the compound on cellular viability was determined with the Sulforhodamine B (SRB) assay, which measures total protein. Cells were fixed with cold TCA to a final concentration of 10% and incubated at 4° C. for 60 minutes. The supernatant was discarded and the plates were washed five times with water and air-dried. SRB solution at […] in 1% acetic acid was added to each well and the plates were incubated for 10 minutes at room temperature. The plates were washed five times with 1% acetic acid and air-dried. The bound stain was solubilized with 10 mM trizma base and the absorbance was read on a plate reader at […].

arrested IMR90 cells = experiment: Arrested cell assay, arrested IMR90 normal cells; format: cell-based; conditions: Homo sapiens, IMR-90
Outline: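 IMR90 cells arrested by 3 days' serum-free culture after overnight plating at 20,000 cells/well (cycling cells kept in 10% FCS), then exposed to compound for 72 h at 37°C; 6 doses, 50 nM to 25 μM. Viability read by Calcein AM esterase fluorescence after 75 min at 37°C.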

Cdc2/cyclin B = target: T1, Cdc2/cyclin B (Homo sapiens, UniProt P06493); experiment: Biochemical kinase assay Cdc2/cyclin B; conditions: Table 6
T1 construct: purchased
Outline: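 Radiometric TCA-precipitation assay measuring [γ-32P]ATP incorporation into Histone H1 (20 μg); 50 μM ATP, 10% DMSO, Tris pH 7.5 with MgCl2 and DTT. Compounds at 1 nM to 10 μM; reaction 20 min at 30 °C, stopped with EDTA/ATP. Activity relative to DMSO control after subtracting 50 mM EDTA background.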

[2] = read-out: IC50 for arrested HCT-116 cells
[3] = NCI assay, read-out: Mean-Graph Mid-point
[4] = read-out: IC50 for arrested IMR90 cells

T1 sequence (P06493 whole entry, species assumed): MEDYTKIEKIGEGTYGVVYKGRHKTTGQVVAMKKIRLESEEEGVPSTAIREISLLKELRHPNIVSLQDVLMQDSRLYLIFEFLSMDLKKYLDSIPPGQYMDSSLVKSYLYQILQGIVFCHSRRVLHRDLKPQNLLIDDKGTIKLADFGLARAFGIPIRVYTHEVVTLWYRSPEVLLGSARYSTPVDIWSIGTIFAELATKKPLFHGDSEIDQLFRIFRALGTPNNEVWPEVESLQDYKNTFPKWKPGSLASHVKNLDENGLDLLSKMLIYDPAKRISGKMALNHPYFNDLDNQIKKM
T1 sequence (P14635 whole entry partner, species assumed): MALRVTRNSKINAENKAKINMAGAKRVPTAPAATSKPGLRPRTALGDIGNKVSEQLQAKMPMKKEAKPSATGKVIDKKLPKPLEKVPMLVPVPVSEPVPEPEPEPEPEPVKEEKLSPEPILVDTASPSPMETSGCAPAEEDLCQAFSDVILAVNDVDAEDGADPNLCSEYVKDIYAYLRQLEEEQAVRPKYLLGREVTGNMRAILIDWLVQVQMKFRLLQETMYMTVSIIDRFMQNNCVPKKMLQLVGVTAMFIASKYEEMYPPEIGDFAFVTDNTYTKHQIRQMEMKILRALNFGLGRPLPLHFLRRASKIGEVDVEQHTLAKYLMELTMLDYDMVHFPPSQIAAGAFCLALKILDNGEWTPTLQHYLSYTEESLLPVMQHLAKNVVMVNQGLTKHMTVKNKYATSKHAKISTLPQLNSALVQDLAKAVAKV

IC50 (arrested HCT-116 cells; serum-starved arrested cells, 72 hours, read-out: Arrested cell assay HCT IC50) [nM]	SMILES	IC50 (arrested HCT-116 cells; [2]) [nM]	IC50 [1, 3] [nM]	IC50 (arrested IMR90 cells; [4]) [nM]	IC50 (Cdc2/cyclin B) [nM]	IC50 ([1]; read-out: NCI panel MG-MID (Mean-Graph Mid-point, average IC50 over the whole cell panel)) [nM]	IC50 (arrested IMR90 cells; serum-starved arrested cells, 72 hours, read-out: Arrested cell assay IMR90 IC50) [nM]
	COCCN1CCN(Cc2ccc(-c3[nH]nc4c3C(=O)c3c(NC(=O)NN5CCOCC5)cccc3-4)cc2)CC1.Cl.Cl [Compound B16, N-[3-(4-{[4-(2-methoxyethyl)piperazinyl]methyl}phenyl)-4-oxoindeno[2,3-d]pyrazol-5-yl](morpholin-4-ylamino)carboxamide dihydrochloride]	< 50	< 50	> 10000	< 10		
	CC(C)N1CCN(C(=O)COc2ccc(-c3[nH]nc4c3C(=O)c3c(NC(=O)NN5CCOCC5)cccc3-4)cc2)CC1.Cl [Compound A37]	< 50	< 50	> 10000	< 100		
< 10	CC(C)c1nn(-c2c(Cl)cccc2Cl)c2nc(Cc3ccc(O)c(CN4CCN(C(C)C)CC4)c3)[nH]c(=O)c12 [Compound C]					< 100	> 1000
